Measurements: patent US12690590B2, “Phenyl compound and plant disease control method” (SUMITOMO CHEMICAL COMPANY, LIMITED, priority 2020, dated 2026)

Columns and labels:
Microsphaera diffusa = experiment: Test Example 10: test for controlling soybean powdery mildew, foliar spray after inoculation; format: in vivo; settings: 200 ppm foliar spray 2 days after inoculation, soybeans (Kurosengoku)
Phytophthora infestans = format: in vivo; settings: 200 ppm foliar spray, tomatoes (Patio), inoculated 1 day after spraying

Row | Structure (SMILES) | lesion area in the treated soybeans relative to the lesion area in the non-treated soybeans (Microsphaera diffusa) [%] | lesion area in the treated tomatoes relative to the lesion area in the non-treated tomatoes (Phytophthora infestans) [%]
1 | CCCCCSc1ccn(-c2ccc(Cl)cc2)n1 [IIA-53] | ≤ 30 | 
2 | CCCS(=O)(=O)c1nc(-c2ccc(C(C)(C)C)cc2)cs1 [IIC-16] |  | ≤ 30
